Patent US8324258B2, “F1F0-ATPase inhibitors and related methods” (The Regents of the University of Michigan, priority 2007, dated 2012)

Legend:
[1] = test system: Ramos cells; assay: Cytotoxicity (cell death) in Ramos cells; assay type: cell-based
Protocol: (§1) The compounds listed in Table 9 were tested for activity against F1F0-ATPase by measuring ATP synthesis and ATP hydrolysis. In addition, the compounds were assessed for cytotoxicity in Ramos cells Inhibition of ATP synthesis and hydrolysis by the F1F0-ATPase and cytotoxicity in Ramos cells was measured as described in K. M. Johnson et al. Chemistry & Biology 2005, 12, 485-496.

[2] = molecular target: T1, F1F0-ATPase (Bos taurus, UniProt P13621); assay: Inhibition of ATP synthesis by the F1F0-ATPase; assay type: biochemical; settings: IC40: concentration for 40% inhibition
Protocol: as §1

[3] = molecular target: T1, F1F0-ATPase; assay: Inhibition of ATP hydrolysis by the F1F0-ATPase; assay type: biochemical; settings: IC40: concentration for 40% inhibition
Protocol: as §1

| Compound | EC50 ([1]; Ramos cells) | ATP Synthesis (IC40 μM) [2] | ATP Hydrolysis (IC40 μM) [3] | EC50 ([1]; Homo sapiens, Ramos) |
| --- | --- | --- | --- | --- |
| O=C(N=C(NCCc1c[nH]cn1)Nc1ccc(F)cc1)c1cccc(Cl)c1 [III-16, (Z/E)-N-((2-(1H-imidazol-4-yl)ethylamino)(4-fluorophenylamino)methylene)-3-chlorobenzamide] | > 30 µM | >20 µM | >30 µM | – |
| CN(C)S(=O)(=O)c1ccc(NC(=NC(=O)c2cccc(Cl)c2)NCCc2cnc[nH]2)cc1 [III-39, (Z/E)-N-((2-(1H-imidazol-5-yl)ethylamino)(4-(N,N-dimethylsulfamoyl)phenylamino)methylene)-3-chlorobenzamide] | > 30 µM | >20 µM | >30 µM | – |
| Cc1cccc(-c2ccc(NC(=NC(=O)c3cccc(Cl)c3)NCCc3c[nH]cn3)cc2)c1 [III-31, (Z/E)-N-((2-(1H-imidazol-4-yl)ethylamino)(3′-methylbiphenyl-4-ylamino)methylene)-3-chlorobenzamide] | < 10 µM | >10 µM | >10 µM | – |
| Cc1ccccc1NC(=NC(=O)c1cccc(Cl)c1)NCCc1c[nH]cn1 [III-8, (Z/E)-N-((2-(1H-imidazol-4-yl)ethylamino)(o-toluidino)methylene)-3-chlorobenzamide] | > 30 µM | >10 µM | >30 µM | – |
| (Z/E)-N-((2-(1H-imidazol-5-yl)ethylamino)(4-(methylsulfonyl)phenylamino)methylene)-3-chlorobenzamide [III-36] | > 30 µM | >20 µM | >30 µM | – |
| O=C(N=C(NCCc1c[nH]cn1)Nc1cccc(-c2ccccc2)c1)c1cccc(Cl)c1 [III-6, (Z/E)-N-((2-(1H-imidazol-4-yl)ethylamino)(biphenyl-3-ylamino)methylene)-3-chlorobenzamide] | < 10 µM | <10 µM | >10 µM | – |
| O=C(N=C(NCCc1c[nH]cn1)Nc1cccc(-c2ccccc2)c1)c1cccc(Br)c1 [VI-10, (Z/E)-N-((2-(1H-imidazol-4-yl)ethylamino)(biphenyl-3-ylamino)methylene)-3-bromobenzamide] | < 10 µM | <10 µM | >10 µM | – |
| CCc1ccccc1NC(=NC(=O)c1cccc(Cl)c1)NCCc1c[nH]cn1 [III-41] | > 30 µM | >10 µM | >10 µM | – |
| O=C(N=C(NCCc1c[nH]cn1)Nc1cccc(F)c1)c1cccc(Cl)c1 [III-15, (Z/E)-N-((2-(1H-imidazol-4-yl)ethylamino)(3-fluorophenylamino)methylene)-3-chlorobenzamide] | > 30 µM | >20 µM | >30 µM | – |
| Cc1cccc(C(=O)N=C(NCCc2c[nH]cn2)Nc2ccccc2-c2ccccc2)c1 [Compound I-4, (E/Z)—N-((2-(1H-imidazol-4-yl)ethylamino)(biphenyl-2-ylamino)methylene)-3-methylbenzamide] | > 20 µM | >10 µM | >20 µM | – |
| C[C@H](Cc1c[nH]cn1)N/C(=N/C(=O)c1cccc(Cl)c1)Nc1ccc(-c2ccccc2)cc1 [IV-6, (R,Z/E)-N-((1-(1H-imidazol-4-yl)propan-2-ylamino)(biphenyl-4-ylamino)methylene)-3-chlorobenzamide] | – | <10 µM | <10 µM | < 10 µM |
| O=C(N=C(NCCc1c[nH]cn1)Nc1ccc2ccccc2c1)c1cccc(Cl)c1 [III-26, (Z/E)-N-((2-(1H-imidazol-4-yl)ethylamino)(naphthalen-2-ylamino)methylene)-3-chlorobenzamide] | > 10 µM | >10 µM | >10 µM | – |
| O=C(/N=C(/NCCc1c[nH]cn1)Nc1ccc2[nH]ccc2c1)c1cccc(Cl)c1 [Compound V-2, (Z/E)-N-((2-(1H-imidazol-4-yl)ethylamino)(1H-indol-5-ylamino)methylene)-3-chlorobenzamide] | – | >10 µM | >20 µM | > 20 µM |
| O=C(/N=C(/NCCc1c[nH]cn1)Nc1cccc2[nH]ccc12)c1cccc(Cl)c1 [Compound V-1, (Z/E)-N-((2-(1H-imidazol-4-yl)ethylamino)(1H-indol-4-ylamino)methylene)-3-chlorobenzamide] | – | >10 µM | >10 µM | > 30 µM |
| O=C(N=C(NCCc1c[nH]cn1)Nc1ccc(-c2ccccc2)cc1)c1cccc([N+](=O)[O-])c1 [II-12, (Z/E)-N-((2-(1H-imidazol-4-yl)ethylamino)(biphenyl-4-ylamino)methylene)-3-nitrobenzamide] | > 30 µM | >10 µM | >10 µM | – |
| O=C(N=C(NCCc1c[nH]cn1)Nc1cccc(-c2ccccc2)c1)c1cccc(F)c1 [VI-7, (Z/E)-N-((2-(1H-imidazol-4-yl)ethylamino)(biphenyl-3-ylamino)methylene)-3-fluorobenzamide] | > 10 µM | <10 µM | >10 µM | – |
| O=C(N=C(NCCc1c[nH]cn1)Nc1cccc(-c2ccccc2)c1)c1ccc(Cl)c(Cl)c1 [VI-9, (Z/E)-N-((2-(1H-imidazol-4-yl)ethylamino)(biphenyl-3-ylamino)methylene)-3,4-dichlorobenzamide] | < 10 µM | <10 µM | <10 µM | – |
| Cc1ccccc1C(=O)N=C(NCCc1c[nH]cn1)Nc1ccccc1-c1ccccc1 [Compound I-3, (E/Z)—N-((2-(1H-imidazol-4-yl)ethylamino)(biphenyl-2-ylamino)methylene)-2-methylbenzamide] | > 30 µM | >20 µM | >30 µM | – |
| N#Cc1ccc(C(=O)N=C(NCCc2c[nH]cn2)Nc2cccc(-c3ccccc3)c2)cc1 [VI-6, (Z/E)-N-((2-(1H-imidazol-4-yl)ethylamino)(biphenyl-3-ylamino)methylene)-4-cyanobenzamide] | > 10 µM | <10 µM | >30 µM | – |
| CN(C)S(=O)(=O)c1cccc(NC(=NC(=O)c2cccc(Cl)c2)NCCc2cnc[nH]2)c1 [III-40, (Z/E)-N-((2-(1H-imidazol-5-yl)ethylamino)(3-(N,N-dimethylsulfamoyl)phenylamino)methylene)-3-chlorobenzamide] | > 30 µM | >20 µM | >30 µM | – |
| O=C(N=C(NCCc1c[nH]cn1)Nc1cccc2ccccc12)c1cccc(Cl)c1 [III-27, (Z/E)-N-((2-(1H-imidazol-4-yl)ethylamino)(naphthalen-1-ylamino)methylene)-3-chlorobenzamide] | > 10 µM | <10 µM | >10 µM | – |
| Cc1ccc(C(=O)N=C(NCCc2c[nH]cn2)Nc2ccc(-c3ccccc3)cc2)cc1 [II-3, (Z/E)-N-((2-(1H-imidazol-4-yl)ethylamino)(biphenyl-4-ylamino)methylene)-4-methylbenzamide] | < 10 µM | >10 µM | >10 µM | – |
